Laboratory results published in patent US20100010022A1, “CANCER TREATMENT METHOD” (SmithKline Beecham Corporation, priority 2004, published 2010).
Marks after values point to notes of the source that are not given here.

What was measured:
[1] = tested on: BT474 (human breast tumor line); assay: BT474 subcutaneous human xenograft mouse model, tumor growth; format: in vivo, SCID mice; details: for tumor growth inhibition: monotherapy, FIG. 1, range over doses
Experimental: The BT474 xenografts were maintained by serial transplantation of tumor fragments in SCID mice. Tumors are initiated by injection of tumor fragments subcutaneously in the axillary region.
(§1) For the xenograft models used here, solid tumors were measured by electronic caliper measurement through the skin. Measurements were typically made twice weekly.
Drugs were administered by P.O. route. […] These studies were performed under IACUC #468 and 603. The results are illustrated in Tables 1-4, and FIGS. 1 and 2. FIGS. 1 and 2 are the graphical representation of the data contained in Tables 3 and 4, respectively.
The column labeled “Exp. 1” contains the results presented in FIG. 1 for the last data point on the graph. The column labeled “Exp. 2” contains analogous results from an independent experiment. Data are presented as percent inhibition of tumor growth, as compared to vehicle.

[2] = tested on: NCI-H322 (non-small cell lung carcinoma); assay: NCI H322 subcutaneous human xenograft mouse model, tumor growth; format: in vivo, SCID mice; details: for tumor growth inhibition: monotherapy, FIG. 2, range over doses
Experimental: NCI H322 cells obtained from the ATCC and were cultured in RPMI 1640+10% Fetal bovine serum, Sodium pyruvate and L-Glutamine at […] in a 95/5% air/CO2 atmosphere. Cells were harvested following trypsin digestion and brought to a density of 2×10^6 cells/200 μl in PBS. Tumors were initiated by injection of the cell suspension subcutaneously in the axillary region. In addition some experiments were performed following serial transplantation of tumor fragments in SCID mice. Tumors were initiated by injection of tumor fragments subcutaneously in the axillary region.
as §1
Drugs were administered by P.O. route. […] These studies were performed under IACUC #468 and 603.
Data are presented as percent inhibition of tumor growth, as compared to vehicle.

[3] = Exp. 1, Example 1 30 mg/kg P.O. once daily
[4] = Exp. 1, Example 1 100 mg/kg P.O. once daily
[5] = Exp. 2, Example 1 30 mg/kg P.O. once daily
[6] = Exp. 2, Example 1 100 mg/kg P.O. once daily
[7] = Exp. 1, Example 3 60 mg/kg P.O. once daily

`Cc1ccc(Nc2nccc(N(C)c3ccc4c(C)n(C)nc4c3)n2)cc1S(N)(=O)=O` [Example 1, 5-({4-[(2,3-dimethyl-2H-indazol-6-yl)(methyl)amino]pyrimidin-2-yl}amino)-2-methylbenzenesulfonamide] was tested, and the Mean tumor volume ([1]; Day 36, Ex. 1 30 mg/kg) was 281 mm^3, the Mean tumor volume ([1]; Day 36, Ex. 1 100 mg/kg) was 293 mm^3 and the Mean tumor volume ([1]; Day 38, Ex. 1 30 mg/kg) was 406 mm^3. For the same compound, the Mean tumor volume ([1]; Day 38, Ex. 1 100 mg/kg) was 417 mm^3, the Mean tumor volume ([1]; Day 41, Ex. 1 30 mg/kg) was 481 mm^3 and the Mean tumor volume ([1]; Day 41, Ex. 1 100 mg/kg) was 453 mm^3. It also gave a Mean tumor volume ([1]; Day 44, Ex. 1 30 mg/kg) of 601 mm^3, a Mean tumor volume ([1]; Day 44, Ex. 1 100 mg/kg) of 519 mm^3 and a Mean tumor volume ([1]; Day 49, Ex. 1 30 mg/kg) of 722 mm^3. It also gave a Mean tumor volume ([1]; Day 49, Ex. 1 100 mg/kg) of 519 mm^3, a Mean tumor volume ([1]; Day 52, Ex. 1 30 mg/kg) of 777 mm^3 and a Mean tumor volume ([1]; Day 52, Ex. 1 100 mg/kg) of 515 mm^3. It also gave a Mean tumor volume ([1]; Day 55, Ex. 1 30 mg/kg) of 860 mm^3, a Mean tumor volume ([1]; Day 55, Ex. 1 100 mg/kg) of 496 mm^3 and a Mean tumor volume ([1]; Day 57, Ex. 1 30 mg/kg) of 954 mm^3. The Mean tumor volume ([1]; Day 57, Ex. 1 100 mg/kg) was 513 mm^3, the “percent inhibition of tumor growth, as compared to vehicle” value (“percent inhibition of tumor growth” below) [1, 3] was 16% and the “percent inhibition of tumor growth” value [1, 4] was 78* %. For the same compound, the “percent inhibition of tumor growth” value [1, 5] was 47* %, the “percent inhibition of tumor growth” value [1, 6] was 64* % and the tumor growth inhibition [1] was 16-78%. For the same compound, the Mean tumor volume ([2]; Day 29, Ex. 1 30 mg/kg) was 182 mm^3, the Mean tumor volume ([2]; Day 29, Ex. 1 100 mg/kg) was 166 mm^3 and the Mean tumor volume ([2]; Day 34, Ex. 1 30 mg/kg) was 351 mm^3. It also gave a Mean tumor volume ([2]; Day 34, Ex. 1 100 mg/kg) of 268 mm^3, a Mean tumor volume ([2]; Day 37, Ex. 1 30 mg/kg) of 358 mm^3 and a Mean tumor volume ([2]; Day 37, Ex. 1 100 mg/kg) of 266 mm^3. The Mean tumor volume ([2]; Day 41, Ex. 1 30 mg/kg) was 329 mm^3, the Mean tumor volume ([2]; Day 41, Ex. 1 100 mg/kg) was 316 mm^3 and the Mean tumor volume ([2]; Day 44, Ex. 1 30 mg/kg) was 309 mm^3. The Mean tumor volume ([2]; Day 44, Ex. 1 100 mg/kg) was 312 mm^3, the Mean tumor volume ([2]; Day 48, Ex. 1 30 mg/kg) was 377 mm^3 and the Mean tumor volume ([2]; Day 48, Ex. 1 100 mg/kg) was 297 mm^3. For the same compound, the Mean tumor volume ([2]; Day 51, Ex. 1 30 mg/kg) was 389 mm^3, the Mean tumor volume ([2]; Day 51, Ex. 1 100 mg/kg) was 313 mm^3 and the “percent inhibition of tumor growth” value [2, 3] was 34%. For the same compound, the “percent inhibition of tumor growth” value [2, 4] was 56* %, the “percent inhibition of tumor growth” value [2, 5] was 20% and the “percent inhibition of tumor growth” value [2, 6] was 62%. For the same compound, the “percent inhibition of tumor growth” value ([2]; Exp. 3, Example 1 30 mg/kg P.O. once daily) was 86* %, the “percent inhibition of tumor growth” value ([2]; Exp. 3, Example 1 100 mg/kg P.O. once daily) was 88* % and the tumor growth inhibition [2] was 86-88%.
`CS(=O)(=O)CCNCc1ccc(-c2ccc3ncnc(Nc4ccc(OCc5cccc(F)c5)c(Cl)c4)c3c2)o1` [Example 3, N-{3-Chloro-4-[(3-fluorobenzyl)oxy]phenyl}-6-[5-({[2-(methanesulphonyl)ethyl]amino}methyl)-2-furyl]-4-quinazolinamine] showed a Mean tumor volume ([1]; Day 36, Ex. 3 60 mg/kg) of 235 mm^3, a Mean tumor volume ([1]; Day 36, Ex. 3 200 mg/kg) of 219 mm^3 and a Mean tumor volume ([1]; Day 38, Ex. 3 60 mg/kg) of 328 mm^3. For the same compound, the Mean tumor volume ([1]; Day 38, Ex. 3 200 mg/kg) was 262 mm^3, the Mean tumor volume ([1]; Day 41, Ex. 3 60 mg/kg) was 367 mm^3 and the Mean tumor volume ([1]; Day 41, Ex. 3 200 mg/kg) was 184 mm^3. The Mean tumor volume ([1]; Day 44, Ex. 3 60 mg/kg) was 485 mm^3, the Mean tumor volume ([1]; Day 44, Ex. 3 200 mg/kg) was 242 mm^3 and the Mean tumor volume ([1]; Day 49, Ex. 3 60 mg/kg) was 554 mm^3. It also gave a Mean tumor volume ([1]; Day 49, Ex. 3 200 mg/kg) of 288 mm^3, a Mean tumor volume ([1]; Day 52, Ex. 3 60 mg/kg) of 633 mm^3 and a Mean tumor volume ([1]; Day 52, Ex. 3 200 mg/kg) of 270 mm^3. For the same compound, the Mean tumor volume ([1]; Day 55, Ex. 3 60 mg/kg) was 763 mm^3, the Mean tumor volume ([1]; Day 55, Ex. 3 200 mg/kg) was 219 mm^3 and the Mean tumor volume ([1]; Day 57, Ex. 3 60 mg/kg) was 878 mm^3. The Mean tumor volume ([1]; Day 57, Ex. 3 200 mg/kg) was 214 mm^3, the “percent inhibition of tumor growth” value [1, 7] was 21% and the “percent inhibition of tumor growth” value ([1]; Exp. 1, Example 3 200 mg/kg P.O. once daily) was 99* %. For the same compound, the “percent inhibition of tumor growth” value ([1]; Exp. 2, Example 3 60 mg/kg P.O. once daily) was 58* %, the “percent inhibition of tumor growth” value ([1]; Exp. 2, Example 3 200 mg/kg P.O. once daily) was 85* % and the tumor growth inhibition [1] was 21-99%. For the same compound, the Mean tumor volume ([2]; Day 29, Ex. 3 20 mg/kg) was 167 mm^3, the Mean tumor volume ([2]; Day 29, Ex. 3 60 mg/kg) was 175 mm^3 and the Mean tumor volume ([2]; Day 34, Ex. 3 20 mg/kg) was 288 mm^3. The Mean tumor volume ([2]; Day 34, Ex. 3 60 mg/kg) was 252 mm^3, the Mean tumor volume ([2]; Day 37, Ex. 3 20 mg/kg) was 403 mm^3 and the Mean tumor volume ([2]; Day 37, Ex. 3 60 mg/kg) was 313 mm^3. It also gave a Mean tumor volume ([2]; Day 41, Ex. 3 20 mg/kg) of 511 mm^3, a Mean tumor volume ([2]; Day 41, Ex. 3 60 mg/kg) of 400 mm^3 and a Mean tumor volume ([2]; Day 44, Ex. 3 20 mg/kg) of 616 mm^3. The Mean tumor volume ([2]; Day 48, Ex. 3 20 mg/kg) was 837 mm^3, the Mean tumor volume ([2]; Day 48, Ex. 3 60 mg/kg) was 577 mm^3 and the Mean tumor volume ([2]; Day 51, Ex. 3 20 mg/kg) was 871 mm^3. For the same compound, the Mean tumor volume ([2]; Day 51, Ex. 3 60 mg/kg) was 649 mm^3, the “percent inhibition of tumor growth” value [2, 7] was 75* % and the “percent inhibition of tumor growth” value ([2]; Exp. 2, Example 3 20 mg/kg P.O. once daily) was 31%. For the same compound, the “percent inhibition of tumor growth” value ([2]; Exp. 3, Example 3 20 mg/kg P.O. once daily) was 28%, the “percent inhibition of tumor growth” value ([2]; Exp. 3, Example 3 60 mg/kg P.O. once daily) was 54% and the tumor growth inhibition [2] was 28-54%.
